pIC50: −log10 of the molar value. Blank lines part the entries; values can stand above or below the compound they belong to.
Experiments:
[1] = target: T1, Phosphatidylinositol 4,5-bisphosphate 3-kinase catalytic subunit delta isoform (Homo sapiens, UniProt O00329); experiment: Inhibition of PI3Kdelta (unknown origin)
T1 sequence (O00329 whole entry): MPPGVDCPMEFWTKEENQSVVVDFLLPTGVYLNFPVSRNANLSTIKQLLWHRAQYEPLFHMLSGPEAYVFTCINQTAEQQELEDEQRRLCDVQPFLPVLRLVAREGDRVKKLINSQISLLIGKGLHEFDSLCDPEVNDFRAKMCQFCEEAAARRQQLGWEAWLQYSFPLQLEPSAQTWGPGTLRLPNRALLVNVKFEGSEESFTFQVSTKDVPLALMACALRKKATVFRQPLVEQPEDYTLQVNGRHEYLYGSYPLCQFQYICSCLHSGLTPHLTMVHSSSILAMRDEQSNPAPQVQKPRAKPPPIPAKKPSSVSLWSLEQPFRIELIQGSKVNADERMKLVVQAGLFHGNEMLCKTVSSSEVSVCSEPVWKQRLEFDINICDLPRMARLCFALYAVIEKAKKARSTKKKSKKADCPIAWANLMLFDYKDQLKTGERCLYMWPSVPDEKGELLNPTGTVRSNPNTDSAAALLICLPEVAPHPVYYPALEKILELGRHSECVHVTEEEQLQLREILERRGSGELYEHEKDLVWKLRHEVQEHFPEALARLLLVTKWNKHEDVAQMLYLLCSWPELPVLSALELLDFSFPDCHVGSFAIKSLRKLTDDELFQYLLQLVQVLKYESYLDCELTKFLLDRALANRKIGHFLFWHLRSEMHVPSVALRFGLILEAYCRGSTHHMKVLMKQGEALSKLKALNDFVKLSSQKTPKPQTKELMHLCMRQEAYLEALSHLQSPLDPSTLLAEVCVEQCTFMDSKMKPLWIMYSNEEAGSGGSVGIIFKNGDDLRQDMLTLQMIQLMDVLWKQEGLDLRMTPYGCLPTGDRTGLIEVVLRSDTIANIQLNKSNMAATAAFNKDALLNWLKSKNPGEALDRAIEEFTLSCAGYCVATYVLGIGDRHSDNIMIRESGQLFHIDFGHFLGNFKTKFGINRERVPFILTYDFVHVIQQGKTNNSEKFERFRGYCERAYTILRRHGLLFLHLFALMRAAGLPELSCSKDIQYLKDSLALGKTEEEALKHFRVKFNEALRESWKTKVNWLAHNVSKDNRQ

[2] = target: T2, Phosphatidylinositol 4,5-bisphosphate 3-kinase catalytic subunit gamma isoform (Homo sapiens, UniProt P48736); experiment: Reversible competitive inhibition of PI3K p110gamma (unknown origin)
T2 sequence (P48736 whole entry, canonical isoform): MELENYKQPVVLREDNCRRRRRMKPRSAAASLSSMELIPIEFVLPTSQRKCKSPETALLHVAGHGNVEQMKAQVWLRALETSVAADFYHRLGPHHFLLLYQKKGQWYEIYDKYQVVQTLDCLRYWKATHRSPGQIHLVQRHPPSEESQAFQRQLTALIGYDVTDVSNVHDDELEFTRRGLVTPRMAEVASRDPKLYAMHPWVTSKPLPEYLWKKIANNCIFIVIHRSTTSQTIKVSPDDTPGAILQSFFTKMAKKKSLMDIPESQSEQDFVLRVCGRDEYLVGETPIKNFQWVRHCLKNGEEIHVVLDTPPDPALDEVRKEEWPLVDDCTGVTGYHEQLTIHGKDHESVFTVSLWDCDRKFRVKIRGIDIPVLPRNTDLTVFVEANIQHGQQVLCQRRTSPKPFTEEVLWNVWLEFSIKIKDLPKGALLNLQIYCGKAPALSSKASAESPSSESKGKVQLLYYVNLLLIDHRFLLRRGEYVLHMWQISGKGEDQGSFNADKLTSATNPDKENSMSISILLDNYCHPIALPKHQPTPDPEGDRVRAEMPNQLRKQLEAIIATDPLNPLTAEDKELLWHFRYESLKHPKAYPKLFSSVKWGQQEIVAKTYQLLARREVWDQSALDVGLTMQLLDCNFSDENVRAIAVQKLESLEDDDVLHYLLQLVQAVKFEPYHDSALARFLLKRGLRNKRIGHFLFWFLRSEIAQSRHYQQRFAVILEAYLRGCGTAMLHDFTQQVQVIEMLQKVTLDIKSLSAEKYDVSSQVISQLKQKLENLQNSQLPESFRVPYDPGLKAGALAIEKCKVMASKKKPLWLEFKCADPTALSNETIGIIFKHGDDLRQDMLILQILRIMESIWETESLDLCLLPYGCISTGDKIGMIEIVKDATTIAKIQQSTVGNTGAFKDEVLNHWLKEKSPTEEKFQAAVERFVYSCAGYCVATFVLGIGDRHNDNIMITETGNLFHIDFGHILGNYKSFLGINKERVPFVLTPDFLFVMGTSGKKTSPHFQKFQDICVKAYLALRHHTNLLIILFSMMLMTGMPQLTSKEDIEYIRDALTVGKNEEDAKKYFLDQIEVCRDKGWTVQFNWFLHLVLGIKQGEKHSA

[3] = target: T3, Phosphatidylinositol 4,5-bisphosphate 3-kinase catalytic subunit beta isoform (Homo sapiens, UniProt P42338)
T3 sequence (P42338 whole entry, canonical isoform): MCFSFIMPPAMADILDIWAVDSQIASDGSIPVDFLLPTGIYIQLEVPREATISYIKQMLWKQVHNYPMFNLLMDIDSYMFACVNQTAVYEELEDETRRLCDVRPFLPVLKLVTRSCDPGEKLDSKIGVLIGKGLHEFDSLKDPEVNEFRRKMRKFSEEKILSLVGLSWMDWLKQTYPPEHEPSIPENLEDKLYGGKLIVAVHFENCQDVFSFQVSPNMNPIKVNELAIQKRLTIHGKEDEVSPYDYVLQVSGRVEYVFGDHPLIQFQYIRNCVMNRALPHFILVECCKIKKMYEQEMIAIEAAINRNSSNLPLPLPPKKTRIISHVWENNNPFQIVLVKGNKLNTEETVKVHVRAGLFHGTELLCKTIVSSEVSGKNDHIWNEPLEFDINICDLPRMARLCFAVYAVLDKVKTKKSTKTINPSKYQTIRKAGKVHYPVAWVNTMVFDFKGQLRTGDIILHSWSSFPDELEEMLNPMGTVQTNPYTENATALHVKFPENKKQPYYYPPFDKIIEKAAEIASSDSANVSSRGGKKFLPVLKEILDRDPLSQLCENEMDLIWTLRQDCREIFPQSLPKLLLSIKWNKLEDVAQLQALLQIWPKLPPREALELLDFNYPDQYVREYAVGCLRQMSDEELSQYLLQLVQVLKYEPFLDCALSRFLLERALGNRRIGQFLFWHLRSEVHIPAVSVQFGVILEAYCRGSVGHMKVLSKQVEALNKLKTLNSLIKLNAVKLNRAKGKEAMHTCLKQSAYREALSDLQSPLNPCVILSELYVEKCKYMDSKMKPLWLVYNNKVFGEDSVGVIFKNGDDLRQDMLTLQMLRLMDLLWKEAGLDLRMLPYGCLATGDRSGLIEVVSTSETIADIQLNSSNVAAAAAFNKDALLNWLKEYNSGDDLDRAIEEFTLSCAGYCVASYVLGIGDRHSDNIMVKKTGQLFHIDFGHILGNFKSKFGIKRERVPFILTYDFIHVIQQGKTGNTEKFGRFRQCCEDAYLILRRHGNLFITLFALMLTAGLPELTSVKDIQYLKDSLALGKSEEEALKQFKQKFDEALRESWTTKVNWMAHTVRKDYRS

[4] = target: T3, Phosphatidylinositol 4,5-bisphosphate 3-kinase catalytic subunit beta isoform; experiment: Inhibition of PI3K p110beta (unknown origin)
[5] = target: T2, Phosphatidylinositol 4,5-bisphosphate 3-kinase catalytic subunit gamma isoform; experiment: Inhibition of PI3K p110gamma (unknown origin)
[6] = target: Serine/threonine-protein kinase mTOR (Homo sapiens, UniProt P42345)
[7] = target: T1, Phosphatidylinositol 4,5-bisphosphate 3-kinase catalytic subunit delta isoform; experiment: Inhibition of PI3K p110delta (unknown origin)
[8] = target: Phosphatidylinositol 4,5-bisphosphate 3-kinase catalytic subunit alpha isoform (Homo sapiens, UniProt P42336); experiment: Inhibition of PI3K p110alpha (unknown origin)
Chain of Phosphatidylinositol 4,5-bisphosphate 3-kinase catalytic subunit alpha isoform (P42336 whole entry, canonical isoform): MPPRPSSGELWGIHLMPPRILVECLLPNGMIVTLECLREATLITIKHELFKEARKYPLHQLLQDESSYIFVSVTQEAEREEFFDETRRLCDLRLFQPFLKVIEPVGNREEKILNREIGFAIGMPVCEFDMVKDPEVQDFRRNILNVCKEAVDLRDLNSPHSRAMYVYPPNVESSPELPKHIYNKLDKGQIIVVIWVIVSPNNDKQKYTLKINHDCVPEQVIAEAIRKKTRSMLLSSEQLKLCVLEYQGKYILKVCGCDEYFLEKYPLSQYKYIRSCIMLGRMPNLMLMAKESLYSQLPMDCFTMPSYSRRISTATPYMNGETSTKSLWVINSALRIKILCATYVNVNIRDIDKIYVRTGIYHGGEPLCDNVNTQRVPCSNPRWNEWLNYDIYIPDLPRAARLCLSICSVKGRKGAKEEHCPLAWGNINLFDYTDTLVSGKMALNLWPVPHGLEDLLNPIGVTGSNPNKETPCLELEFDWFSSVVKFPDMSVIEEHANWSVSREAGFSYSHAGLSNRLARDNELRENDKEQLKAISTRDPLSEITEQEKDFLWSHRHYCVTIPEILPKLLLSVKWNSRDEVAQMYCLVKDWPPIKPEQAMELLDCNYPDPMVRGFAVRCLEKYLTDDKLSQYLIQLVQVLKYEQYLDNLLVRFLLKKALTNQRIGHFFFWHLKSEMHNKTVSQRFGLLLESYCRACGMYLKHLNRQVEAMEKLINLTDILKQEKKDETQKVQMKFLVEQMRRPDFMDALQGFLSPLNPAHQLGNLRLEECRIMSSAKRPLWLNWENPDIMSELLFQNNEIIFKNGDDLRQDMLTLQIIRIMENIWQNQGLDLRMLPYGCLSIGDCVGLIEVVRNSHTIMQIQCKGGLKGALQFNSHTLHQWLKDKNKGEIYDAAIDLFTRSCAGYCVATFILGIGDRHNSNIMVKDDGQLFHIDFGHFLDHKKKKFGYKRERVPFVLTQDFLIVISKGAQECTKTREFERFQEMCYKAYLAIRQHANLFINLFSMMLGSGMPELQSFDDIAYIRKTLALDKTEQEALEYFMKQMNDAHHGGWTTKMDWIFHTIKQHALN

SMILES: C[C@H](Nc1ncnc2[nH]cnc12)c1nc2ccc(F)cc2c(=O)n1-c1ccccc1 [ACALISIB]
pIC50 [1]: 7.90

pIC50 [2]: 6.42
pIC50 [3]: 7.44
SMILES: COc1ccc(Cl)c(Nc2nc3ccccc3nc2NS(=O)(=O)c2cccc(NC(=O)C(C)(C)N)c2)c1 [PILARALISIB]

SMILES: CCn1c(=O)c(-c2cc[nH]n2)cc2c(C)nc(N)nc21 [VOXTALISIB]
pIC50 [4]: 6.95
pIC50 [5]: 8.05
pIC50 [6]: 6.80
pIC50 [7]: 7.37
pIC50 [8]: 7.41
